# Reference: publication PMC4467156, “A new chemical inhibitor of angiogenesis and tumorigenesis that targets the VEGF signaling pathway upstream of Ras” (Oncotarget, 2015)
# Assays:
# HUVEC cells [1] = test: Cell viability WST-1, HUVEC; type: cell-based, human; settings: confluent HUVEC, 24 h at 37°C
# Description: (§1) Once they had reached confluency, cells were kept for 24 hours in medium supplemented with 0.5% FCS (LLC/2 and 3T3 cells) or 2.5% FCS (HUVEC and HMVEC-d cells), in the presence of COB223 at different concentrations. WST-1 assay (Roche Diagnostic, Meylan, France) was then performed according to the manufacturer's instructions.
# HMVECd cells = test: Cell viability WST-1, HMVECd; type: cell-based, human; settings: confluent HMVECd, 24 h at 37°C
# Description: as §1
# ERK2 = ERK2 (Homo sapiens, UniProt P28482); test: In vitro kinase assay ERK2; type: biochemical; settings: concentrations up to 50 μM
# Description: (§2) We first wondered whether COB223 required to be internalized to exert its biological effect. For this, we synthesized a covalent complex between BSA and COB223 and purified it. […] In vitro kinase assays were performed with a panel of purified protein-kinases involved in mitogenic signaling, including VEGFR2, FGFR1, FGFR2, PDGFRß, Met, Raf, MEK1, ERK1, ERK2, PKCα, PKCβI, PKCβII, PKCζ as indicated in Table 2. […] We then analyzed the effect of COB223 on VEGF-induced phosphorylations of VEGFR2, MEK and ERK1/2 (Figure 9). […] (Figure 9A, 9B). […] It was also specific of the p42/p44 MAP kinase pathway as activation of p38 MAP kinase phosphorylation in HUVEC cells by VEGF or serum was unaffected by COB223 (data not shown). The activation of src phosphorylation by VEGF in HUVECs was also unaffected by COB223 (data not shown).
# VEGFR2 phosphorylation = test: Western blot, VEGFR2 autophosphorylation in HUVEC; type: cell-based, human; settings: 10 ng/mL VEGF-A 15 min, 25 μM COB223
# Description: (§3) Figure 9 Effect of COB223 on growth factor-induced VEGF-R2, MEK and ERK phosphorylations (A) Serum-starved HUVEC cells were incubated for 15 min in the presence of either 10 ng/mL VEGF-A or 20 ng/mL FGF-2 and in the absence or the presence of 25 μM COB223. The phosphorylations of VEGFR2 on tyrosine 1175 or tyrosine 1214, of MEK and ERK1/2 were then analyzed by Western blot analysis of the cell lysates as described in Material and Methods. Western blots for total VEGFR2, MEK and ERK1/2 were used as loading controls. The blots shown in Figure 9A were obtained in one representative experiment. (B) The hybridization signals observed in 5 similar but independent experiments were quantitated and the ratios between phospho-VEGFR2(Y1175) or (Y1214) and VEGFR2 signals were normalized to the value observed in the absence of COB223. (C) The hybridization signals observed in 5 similar but independent experiments were quantitated and the ratios between phospho-ERK1/2 and ERK1/2 and between phospho-MEK and MEK were normalized to the values observed in the absence of COB223. Additional experiments performed with 10% fetal calf serum (FCS) as a mitogen were included in this analysis. * : p < 0.05; ** : p < 0.01
# (§4) Serum-starved HUVEC cells were incubated for 15 min in the presence of either 10 ng/mL VEGF-A or 20 ng/mL FGF-2 and in the absence or the presence of indicated concentration of COB223. […]
# LLC/2 cells = test: 3H-thymidine incorporation, LLC/2; type: cell-based; settings: LLC/2 lung carcinoma cells; less efficiently than on endothelial cells
# Description: (§5) Cells were treated with molecules in complete medium. After 22 h, 1 μCi per well H^3 thymidine was added for 2 hours. Cells are then fixed by 10% trichloroacetic acid and harvested with 0.2N NaOH, 1% SDS. Radioactivity was measured in a beta counter.
# HUVEC cells [2] = test: 3H-thymidine incorporation, HUVEC; type: cell-based, human; settings: HUVEC, 24 h
# Description: as §5
# ERK phosphorylation = ERK phosphorylation in CCL-39 fibroblasts with estrogen-responsive active Raf; type: cell-based; settings: estradiol 3 h, 25 μM COB223 15 or 30 min
# Description: Figure 11 Effect of COB223 on mitogenic or oncogenic activation of the Ras /MEK/ERK signaling pathway (A) Serum-starved HUVEC cells were incubated for 15 min in the presence of 10 ng/mL VEGF-A and in the absence or the presence of 25 μM COB223. The phosphorylations of PLCγ on tyrosine 783, of Raf on serine 338 or on serine 259 and of ERK1/2 were then analyzed by Western blot analysis of the cell lysates as described in Material and Methods. Western blots for total PLCγ, Raf and ERK1/2 were used as loading controls. (B) MCF10A cells overexpressing an oncogenic version of Ras (MCF10A-RasG12V) were treated for the indicated periods of time by 25 μM COB223. Total ERK1/2 and phospho-ERK1/2 were then visualized by Western blotting of the cell extracts. Non-treated regular MCF10A cells were analyzed as a control (first lane). (C) CCL-39 fibroblasts expressing a constitutively active Raf in an estrogen-responsive manner were stimulated for 3 h with estradiol and treated for 15 or 30 min with 25 μM COB223. Total ERK1/2 and phospho-ERK1/2 were then visualized by Western blotting of the cell extracts. Non-treated cells were analyzed as a control (left lanes).
# MEK phosphorylation = test: Western blot, MEK phosphorylation in HUVEC; type: cell-based, human; settings: 10 ng/mL VEGF-A 15 min, 25 μM COB223
# Description: as §3, §4
# [3] = tested on: p38 MAP kinase phosphorylation; test: p38 MAP kinase phosphorylation in HUVEC; type: cell-based, human; settings: data not shown
# FGFR1 = FGFR1 (Homo sapiens, UniProt P11362); test: In vitro kinase assay FGFR1; type: biochemical; settings: concentrations up to 50 μM
# Description: as §2
# Chain of ERK2 (P28482 whole entry, species assumed): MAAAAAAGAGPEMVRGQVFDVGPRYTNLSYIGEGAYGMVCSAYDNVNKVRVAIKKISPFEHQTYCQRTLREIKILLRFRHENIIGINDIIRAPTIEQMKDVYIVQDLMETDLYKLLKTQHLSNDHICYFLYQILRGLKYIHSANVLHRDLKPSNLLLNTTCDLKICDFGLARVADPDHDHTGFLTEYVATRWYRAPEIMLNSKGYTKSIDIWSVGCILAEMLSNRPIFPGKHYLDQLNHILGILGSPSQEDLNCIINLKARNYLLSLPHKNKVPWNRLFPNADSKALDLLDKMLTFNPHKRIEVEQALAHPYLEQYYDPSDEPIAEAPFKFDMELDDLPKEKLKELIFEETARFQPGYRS
# Chain of FGFR1 (P11362 22-822, species assumed): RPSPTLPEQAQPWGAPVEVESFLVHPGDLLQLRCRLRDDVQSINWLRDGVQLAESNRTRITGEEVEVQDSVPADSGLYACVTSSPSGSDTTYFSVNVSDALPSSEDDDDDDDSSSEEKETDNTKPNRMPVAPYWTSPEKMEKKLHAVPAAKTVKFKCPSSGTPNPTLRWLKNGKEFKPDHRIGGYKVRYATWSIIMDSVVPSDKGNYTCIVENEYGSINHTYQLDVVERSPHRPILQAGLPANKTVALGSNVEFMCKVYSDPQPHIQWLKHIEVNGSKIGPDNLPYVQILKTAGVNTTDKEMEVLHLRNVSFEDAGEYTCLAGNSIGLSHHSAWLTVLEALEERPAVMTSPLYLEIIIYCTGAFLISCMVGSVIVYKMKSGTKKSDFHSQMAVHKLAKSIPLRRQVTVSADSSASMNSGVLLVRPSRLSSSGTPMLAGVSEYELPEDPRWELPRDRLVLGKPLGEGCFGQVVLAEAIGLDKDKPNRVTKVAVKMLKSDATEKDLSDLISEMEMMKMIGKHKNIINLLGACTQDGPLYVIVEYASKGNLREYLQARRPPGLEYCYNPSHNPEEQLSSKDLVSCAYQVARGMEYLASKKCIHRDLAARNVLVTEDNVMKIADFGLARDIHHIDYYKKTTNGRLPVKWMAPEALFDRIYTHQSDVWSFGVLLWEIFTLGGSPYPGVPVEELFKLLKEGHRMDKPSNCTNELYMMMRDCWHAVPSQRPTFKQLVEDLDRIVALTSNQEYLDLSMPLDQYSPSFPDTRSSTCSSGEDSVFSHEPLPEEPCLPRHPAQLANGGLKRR
compound,measurement,setting,value
"CN(C)c1cccc2c(S(=O)(=O)NCCCN3CCN(CCCNC(=O)OC(C)(C)C)CC3)cccc12 [COB223, tert-Butyl 3-(4-(3-(5-(dimethylamino)naphthalene-1-sulfonamido)propyl)piperazin-1-yl) propylcarbamate]",cytotoxic concentrations,HUVEC cells [1],> 50 µM
same,cytotoxic concentrations,HMVECd cells,> 50 µM
same,kinase inhibition,ERK2,None of them was inhibited
same,autophosphorylation of VEGFR2 on tyrosine 1175,VEGFR2 phosphorylation,did not alter
same,autophosphorylation of VEGFR2 on tyrosine 1214,VEGFR2 phosphorylation,did not alter
same,effect on cell proliferation,LLC/2 cells,inhibited
same,concentrations inhibiting thymidine incorporation,HUVEC cells [2],above 5 μM
same,ERK phosphorylation induced by estrogen,ERK phosphorylation,did not inhibit
same,VEGF-induced phosphorylation of MEK,MEK phosphorylation,significantly inhibited
same,activation of p38 MAP kinase phosphorylation by VEGF or serum,[3],unaffected
same,kinase inhibition,FGFR1,None of them was inhibited
